Assay results as given in the METLIN SMRT retention time set (Domingo-Almenara et al. 2019).

Assay: gradient 5% acetonitrile 3 min, to 50% in 2 min, to 85% in 15 min, held 3 min, 100 µL/min
Conditions: column: Zorbax Extend-C18 2.1 x 50 mm; eluents: water / acetonitrile, 0.1% formic acid
Method in brief: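 A Zorbax Extend-C18 column (2.1 × 50 mm, 1.8 μm) run at 100 μL/min with water and acetonitrile, both containing 0.1% formic acid, separated mixtures of ~100 pure standards. The HPLC was coupled to a quadrupole time-of-flight mass spectrometer operated in positive and negative ionization mode, with dead and dwell volumes of 40 μL and 900 μL. Each retention time was taken from a computationally picked adduct peak that was then manually inspected.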

Compound	RP-LC retention time [s]
O=C(Nc1ccccc1)N1CCN(c2cnn3c(C4CC4)nnc3c2)CC1	625
Cc1ccc(NC(=O)NCC(c2cccnc2)c2cn(C)c3ccccc23)c(Cl)c1 (stereo not given)	768
O=C(c1ccncc1)N1CC(C(=O)N2CCN(c3ccccn3)CC2)C2(CCCCC2)C1 (stereo not given)	570
COCC(=O)NC1CCN(c2ccc(C)cc2)C1=O (stereo not given)	666
CC(C)CN1CCn2cc(C(=O)NC(C)c3ccccc3)nc2C1 (stereo not given)	613
CCCNc1cc(N2CCCC(CCC(=O)Nc3ccc(OCC)cc3)C2)ncn1 (stereo not given)	728
O=c1ccc(-c2ccc(Cl)cc2)nn1CCCNS(=O)(=O)Cc1ccccc1	579
CC1CC(C)CN(c2nccn3c(=O)n(CC(=O)Nc4ccc(F)cc4F)nc23)C1 (stereo not given)	902
Cc1onc(-c2ccccc2)c1C(=O)Nc1nc(-c2ccc(F)cc2)cs1	1090
CCc1nccn1Cc1nc(-c2cccc(Br)c2)no1	685
COc1ccc(-c2noc(C3(NC(=O)COc4ccccc4)CCCCC3)n2)cc1	1170
Cc1cccc(NC(=O)Cn2nc3nc(N4CCCC(C)C4)ccn3c2=O)c1 (stereo not given)	791
Cc1cc(C)cc(NC(=O)c2cnc(-c3ccccc3)nc2-c2ccncc2)c1	988
O=C1NCCCCCCN[C@H]2C[C@H](C(=O)N3CCc4ccccc4C3)C[C@@H]12	612
Cc1nc(-c2ccccc2)sc1C(=O)N1CCN(c2ccc(-n3ccnc3C)nn2)CC1	572
CCc1ccc(-c2cn3ccn(-c4ccc(OC)c(OC)c4)c(=O)c3n2)cc1	840
Cc1ccc(CNC(=O)N2CCCC(C)(C(=O)NCc3ccc(C)cc3)C2)cc1 (stereo not given)	947

Compound	RP-LC retention time [s]
Cc1cccc(CNC2=NCCNC23CCN(S(=O)(=O)c2cc(C)cc(C)c2)CC3)c1	787
COc1cccc(-c2nc(C3CCN(S(=O)(=O)c4ccc5c(c4)CCC5)CC3)no2)c1	1220
Cc1sc(-c2noc(C3CC3)n2)cc1S(=O)(=O)N1CCC(C(=O)NCc2ccco2)CC1	945
CCCCS(=O)(=O)N1CCCC(c2nnc(-c3ccc4c(c3)OCO4)o2)C1 (stereo not given)	819
COc1ccccc1-c1noc(Cn2c(=O)n(-c3ccccc3F)c(=O)c3sccc32)n1	880
CCc1ccc(CNC(=O)C2CCN(c3cnc(N4CCOCC4)nc3)CC2)cc1	786
CCS(=O)(=O)Nc1cccc(C(=C2CCCCC2)c2cnc[nH]2)c1	738
CCOC(=O)c1nc(NC(C)c2ccccc2)c2ccccc2n1 (stereo not given)	794
COc1ccc(NS(=O)(=O)c2c(C)sc(C)c2-c2cc(C(F)(F)F)on2)cc1Cl	1180
O=C(C1CCN(c2cnc3nccnc3c2)CC1)N1CCN(c2cccc(Cl)c2)CC1	833
CN(CC1CCOC1)C(=O)Nc1ccccc1Br (stereo not given)	736
CCn1ccc(C(=O)NCC2Cn3cccc3C(=O)N2C)n1 (stereo not given)	596
Cn1ncc2c(N3CCSCC3)nc(C(=O)Nc3cccc(OC(F)(F)F)c3)nc21	1010
Cc1cc(-c2nnc(-c3ccc(F)cc3)o2)c(C)n1CC(=O)NCc1cccs1	905
CCS(=O)(=O)N1CC(=O)N(c2ccc(C)cc2C)C(C)(C(=O)NCc2ccc(F)cc2)C1 (stereo not given)	857
COCCNC(=O)c1ccccc1-c1ocnc1C(=O)OC	611
CCN(CC)S(=O)(=O)c1ccc2nc(N3CCN(c4ccccn4)CC3)cnc2c1	675

Now from value to molecule:

RP-LC retention time [s]	Compound
843	CCn1cc(-c2ccc(Cl)cc2)cc1C(=O)NC(C)c1ccccn1 (stereo not given)
667	CCCC(NC(=O)c1cccc(N(C)C)c1)C(=O)Nc1nc2ccccc2[nH]1 (stereo not given)
646	COc1ccc(NC(=O)C2CC(=O)N(c3n[nH]c4ccccc34)C2)cn1 (stereo not given)
794	Cc1ccc(NC(=O)N2CCCC2c2nncn2-c2ccccc2)c(Cl)c1 (stereo not given)
910	COc1ccc2cc(C(=O)Nc3ccc(F)cc3)[nH]c2c1
598	O=C(c1cc(-c2ccncc2)n[nH]1)N1CCN(C(=O)c2cc3ccccc3[nH]2)CC1
832	O=C(c1n[nH]c2ccccc12)N1CCN(c2ccc(C(F)(F)F)cn2)CC1
735	Cc1cc2n(n1)CCCN2C(=O)CCC(=O)Nc1ccc(Br)cc1F
1030	CCCCCNC(=O)c1ccc(Oc2nccnc2N2CCSCC2)cc1
849	Fc1ccc(CN2CCCCC2c2nc(-c3cnccn3)no2)cc1F (stereo not given)
716	Cc1csc(-c2cn(CC(=O)NCc3cccc(C(F)(F)F)c3)cn2)n1
543	Cc1nn(C)c(C)c1CCC(=O)N1CCN(S(C)(=O)=O)CC1
1340	Cc1cc(C)c(S(=O)(=O)N2CCCC2c2nc(-c3ccc(Cl)cc3)no2)cc1C (stereo not given)
646	CCc1ccccc1NC(=O)Cn1cnc2nc(N3CCCC(C(=O)NC)C3)sc2c1=O (stereo not given)
614	CCC(=O)NCc1nc2c(n1CC)CN(C(=O)c1ccc(C(F)(F)F)cc1)CC2
900	O=S(=O)(c1cccc2cccnc12)N1CCCn2nc(-c3cccs3)cc2C1

RP-LC retention time [s]	Compound
793	O=C(NCC1CCCO1)c1ccc(-c2cnc(Oc3ccc(F)cc3)nc2)cc1 (stereo not given)
1020	O=C(NCc1ccc(F)cc1)N1CCN(c2nc3cccnc3n(Cc3ccccc3)c2=O)CC1
863	Cc1cc(C)c(C(=O)N2CCC(CC(=O)NC(c3cccs3)C(C)C)CC2)[nH]1 (stereo not given)
1090	COc1ccc(NC(=O)Cn2c(C)nc3c(sc4nc(-c5ccccc5)ccc43)c2=O)cc1Cl
1020	CCCCC(=O)O[C@]1(C(=O)CO)CC[C@H]2[C@@H]3CCC4=CC(=O)CC[C@]4(C)[C@H]3[C@@H](O)C[C@@]21C
684	CCCN(C)c1nccn2c(=O)n(CC(=O)Nc3cccc(C)c3C)nc12
799	Fc1cccc(-c2noc(-c3ccc(N4CCN(c5ccccn5)CC4)nc3)n2)c1
881	Cc1cnn(Cc2nc(-c3ccc(NC(=O)C4CCCCC4)cc3)oc2C)c1
1230	COc1ccc(OC)c(-c2csc(-c3nnn(-c4ccc(C)c(C)c4)c3N)n2)c1
1090	COc1cccc(Cc2nc(Cc3nc(-c4ccccc4)oc3C)no2)c1
943	Cc1oc(C2CCN(S(=O)(=O)CCc3ccccc3)CC2)nc1C(=O)N1CCCCC1
709	CCc1ccc(NC(=O)Cn2nc3n(c2=O)CCCCC3)cc1
900	O=C(NC1CCCCCC1)C1CCN(C(=O)c2ncn3c2COC(c2ccc(Cl)cc2)C3)CC1 (stereo not given)
823	COc1cc(CNC(=O)c2cnc(-c3ccccc3)nc2-c2ccncc2)cc(OC)c1
1180	Cc1ccc2oc(-c3noc(C(=O)NC(C)Cc4ccco4)n3)c(C)c2c1 (stereo not given)
